In publication PMC6207618, “The GbsR Family of Transcriptional Regulators: Functional Characterization of the OpuAR Repressor” (Frontiers in Microbiology, 2018):

What was measured:
[1] = test system: opuAA-treA reporter activity; experiment: opuAA-treA reporter fusion TreA enzyme activity assay; type: cell-based, Bacillus subtilis; conditions: strain STHB10 (OpuAR+), SMM with 1.2 M NaCl, 1 mM compatible solute
From the text: opuAAB.infantis′-treA reporter gene fusions were constructed using primers opuAR treA Frag1/2 rev and either opuAR treA Frag1/4 for (Supplementary Table S2) to amplify a 1940-bp DNA fragment from chromosomal DNA of B. infantis NRRL B-14911, including the predicted opuA promoter region and the coding region of opuAR, or primer opuAR treA Frag2 for, to generate a fragment lacking the opuAR gene. PCR products, which had been cut with BamHI and SmaI, were cloned into the vector pJMB1 ([Hoffmann et al., 2013]). This vector carries a promoterless treA gene, whose gene product [phospho-α-(1,1)-glucosidase] can be assayed and photometrically quantitated with the chromogenic substrate α-PNPG ([Gotsche and Dahl, 1995]). The plasmids resulting for the construction of the treA transcriptional reporter gene fusions were named pSTH33 (opuAR^+/opuAAB.i-treA) and pSTH34 (opuAR^-/opuAAB.i-treA) (Supplementary Table S3). All treA reporter gene fusions were stably integrated as a single copy into the chromosome of various B. subtilis strains at the amyE gene; all of these strains carry a gene disruption mutation of the native chromosomal treA gene of B. subtilis to allow the assignment of the measured TreA enzyme activity to the reporter gene constructs (Supplementary Table S1).
Aliquots (1.5 ml) from cultures of B. subtilis strains carrying chromosomal opuAAB.i′-treA reporter operon gene fusions (Supplementary Table S1) were used to monitor the expression levels by assaying the TreA reporter enzyme activity as described previously using the chromogenic substrate α-PNPG ([Gotsche and Dahl, 1995]). The TreA-specific activity is expressed in units per milligram of protein. Protein concentrations were estimated from the optical density of the cell culture harboring the treA reporter operon gene fusion ([Miller, 1972]).
FIGURE 6 Influence of the B. subtilis GbsR-like regulators on the expression of opuA from B. infantis and its transcriptional response to the presence of compatible solutes. (A) Genetic structure of the opuAA-treA transcriptional reporter fusions. (B) The opuAA-treA reporter gene fusions, either including or lacking the B. infantis opuAR gene, were integrated into the chromosome of the B. subtilis strain STHB05; it carries gene disruption mutations of all three GbsR-like regulators, resulting in strains STHB10 (OpuAR^+) and STHB11 (OpuAR^-). […] The opuAA-treA reporter strains were grown in SMM to early exponential growth phase (OD578 1–1.5) and then assayed for TreA reporter enzyme activity. The shown data represent four independent biological replicates and each culture was assayed twice. (C) Strain STHB10 (opuAR^+/opuAA-treA) was grown in SMM with increasing NaCl concentrations until each of these cultures reached mid-exponential growth phase (OD578 of about 1.5) and were then harvested for TreA reporter enzyme activity assays. The given data are the means and standard deviations of four independent biological replicates and each culture was assayed twice. (D) Expression of the opuAA-treA reporter gene construct in response to extracellular provided compatible solutes. The opuAA-treA reporter fusion strains STHB10 (OpuAR^+) and STHB11 (OpuAR^-) were cultivated in SMM containing 1.2 M NaCl either in the absence or presence of 1 mM of the indicated compatible solutes. The opuAA-treA reporter fusion strains were grown to early exponential growth phase (OD578 1–1.5) and then assayed for TreA reporter enzyme activity. The given data are the means and standard deviations of four independent biological replicates and each culture was assayed twice.
To identify possible effector molecules for the B. infantis OpuAR protein, we conducted a series of in vivo experiments in which we assessed any possible inducing effects of compatible solutes on opuAA-treA transcriptional activity in an OpuAR-dependent fashion (Figure 6D).

[2] = biological target: B. infantis OpuAR protein (OpuAR-Strep-tag II recombinant protein) (Bacillus infantis NRRL B-14911); experiment: SEC; HiLoad 16/600 Superdex 200 pg; 2 ml of affinity-purified OpuAR (1.5 mg/ml) loaded straight after purification; 100 mM KPP (pH 8), 300 mM NaCl; column standardised with thyroglobulin, albumin, ovalbumin and cytochrome C

Compound | Induction of opuAA-treA reporter activity (OpuAR-dependent) [1] | stoichiometry N [2]
C[N+](C)(C)CCOS(=O)(=O)[O-] [choline-O-sulfate] | did not serve as inducers | –
CC1=NCC[C@@H](C(=O)O)N1 [ectoine] | did not serve as inducers | –
B. infantis OpuAR protein (OpuAR-Strep-tag II recombinant protein) (natural protein) | – | 2
